Data taken from US20130316006A1, “PARTICLES, COMPOSITIONS AND METHODS FOR OPHTHALMIC AND/OR OTHER APPLICATIONS” (Kala Pharmaceuticals, Inc., priority 2012, published 2013).

How the values were obtained:
[1] = tested on: VEGF; experiment: Rabbit VEGF-challenge model, leakage by fluorescein angiography; format: in vivo, Dutch belted rabbits; conditions: axitinib-MPP 5%, 50 μL every 4 hours days 1-6; Avastin one intravitreal injection day 1; VEGF day 3; angiography day 6
Description: On day 3, the rabbits received an intravitreal injection of VEGF. On day 6, the rabbits were accessed for leakage via fluorescein angiography.
In this model, Dutch belted rabbits were given an intravitreal injection of VEGF to stimulate vascular growth. Fluorescein angiography was used to determine the degree to which the rabbits developed abnormal vascular and leakage.

[2] = physchem; conditions: 25 °C, water
[3] = Chemical stability of LE formulations to 25 kGy gamma irradiation (degradant concentrations); format: physicochemical
Method: Gamma irradiation of a formulation can cause chemical degradation and free radical generation and is a concern especially in aqueous formulations. LE is a soft steroid designed to metabolize via the hydrolytic or enzymatic cleavage of two ester bonds into PJ-91 and PJ-90. […] The concentrations of the degradants were measured immediately after being subjected to gamma irradiation (“Gamma irradiated initial”) and 4 weeks after being subjected to gamma irradiation (“gamma irradiated after 4 weeks”) using a Cobalt 60 gamma irradiation source at a dose of 25 kGy. […] [table]

Compound: Avastin®: bevacizumab; positive control, one intravitreal injection
- Vessel growth and vascular leakage after intravitreal VEGF [1]: no change in retinal vasculature

Compound: Nc1c(CC(=O)O)cccc1C(=O)c1ccc(Br)cc1 [bromfenac calcium]
- solubility [2]: ~150 µg/mL

Compound: CCOC(=O)O[C@]1(C(=O)OCCl)CC[C@H]2[C@@H]3CCC4=CC(=O)C=C[C@]4(C)[C@H]3[C@@H](O)C[C@@]21C [LE, loteprednol etabonate]
- Amount of tetradeca when LE is gamma-irradiated [3]: above 1%
